Counter-ions that a name gives are not always drawn.
How the values were obtained:
[1] = target: T1, human recombinant KDM1A (LSD1)/CoRest (Homo sapiens, UniProt O60341); test: Assay of enzyme inhibition of KDM1A (LSD1), Amplex UltraRed/peroxidase coupled; assay type: biochemical; conditions: 15 min preincubation, 4.5 μM mono-methylated H3-K4 peptide, range classes, read-out: IC50 [μM], KDM1A inhibition assay
T1 construct: made in house; host or cells: E. coli
Procedure, shortened: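 KDM1A/CoRest complex with inhibitor (e.g. 0–100 μM) and Amplex UltraRed/peroxidase preincubated 15 min at RT. Substrate: mono-methylated H3K4 21-mer peptide in 50 mM Tris pH 8, 0.05 mg/ml BSA, aerobic. IC50 from duplicates run twice, background-corrected.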

[2] = tested on: Acute promyelocytic leukemia NB4 cells; test: Cell growth (CellTiter-Fluor cell viability assay); assay type: cell-based; conditions: Homo sapiens, NB-4, 48 h, range classes, read-out: IC50 [μM], cell growth inhibitory assay
Source text: CellTiter-Flor® (Promega) is as a nonlytic, single-reagent-addition fluorescence assay that measures the relative number of living cells in a culture population after experimental manipulation. The CellTiter-Fluor™ Cell Viability Assay measures the conserved and constitutive protease activity within live cells and therefore acts as a marker for cell viability.
Acute promyelocytic leukemia NB4 cells, (obtained from the Deutsche Sammlung von Mikroorganismen and Zellkulturen) in exponential growth, were incubated for 48 h with different concentrations of the inhibitors. After 48 h a volume of CellTiter-Fluor® Reagent equal to one fifth of volume of cell culture medium was added. The content was mixed and incubates for at least 90 min at 37° C. degree to obtain a stable signal. The fluorescence was recorded using an excitation wavelength of 360 nm and an emission at 535 nm. The IC50 was calculated using GraphPad Software.

## CC[C@@]1(N)C[C@H]1c1ccc(OCc2ccccc2)cc1 (relative stereo) [Example A-41, 2-(4-benzyloxyphenyl)- trans-1-ethyl-cyclopropanamine hydrochloride]
[1]
  IC50: 0.1 to 1 µM
[2]
  IC50: 10 to 50 µM

## N[C@]1(Cc2ccccc2)C[C@H]1c1ccc(OCc2ccccc2)cc1 (relative stereo) [Example A-43, trans-1-benzyl-2-(4-benzyloxyphenyl) cyclopropanamine hydrochloride]
[1]
  IC50: 0.1 to 1 µM
[2]
  IC50: 10 to 50 µM

## N[C@]1(Cc2ccc3ccccc3c2)C[C@H]1c1ccc(NC(=O)Cc2ccccc2)cc1 (relative stereo) [Example A-46, N-[4-[(trans-2-amino-2-(2-naphthylmethyl)cyclopropyl]phenyl]-2-phenyl-acetamide hydrochloride]
[1]
  IC50: < 0.1 µM
[2]
  IC50: ≤ 10 µM

## CC[C@@]1(N)C[C@H]1c1ccc(NC(=O)Cc2cccc3ccccc23)cc1 (relative stereo) [Example A-68, N-[4-trans-[2-amino-2-ethyl-cyclopropyl]phenyl]-2-(1-naphthyl) acetamide hydrochloride]
[1]
  IC50: < 0.1 µM
[2]
  IC50: 10 to 50 µM

## N[C@]1(Cc2ccc3ccccc3c2)C[C@H]1c1ccc(NC(=O)c2ccc(NC(=O)OCc3ccccc3)cc2)cc1 (relative stereo) [Example A-70, benzyl N-[4-[[4-[trans-2-amino-2-(2-naphthylmethyl)cyclopropyl]phenyl]carbamoyl]phenyl]carbamate 2,2,2-trifluoroacetic acid]
[1]
  IC50: 0.1 to 1 µM
[2]
  IC50: ≤ 10 µM

## CC[C@@]1(N)C[C@H]1c1ccc(NC(=O)c2cccc3ccccc23)cc1 (relative stereo) [Example A-71, N-[4-(trans-2-amino-2-ethyl-cyclopropyl)phenyl] naphthalene-1-carboxamide hydrochloride]
[1]
  IC50: < 0.1 µM
[2]
  IC50: ≤ 10 µM

## N[C@]1(Cc2ccc3ccccc3c2)C[C@H]1c1ccc(NC(=O)c2ccc3ccccc3c2)cc1 (relative stereo) [Example A-72, N-[4-[trans-2-amino-2-(2-naphthylmethyl)cyclopropyl]phenyl] naphthalene-2-carboxamide hydrochloride]
[1]
  IC50: 0.1 to 1 µM
[2]
  IC50: ≤ 10 µM

## N[C@]1(Cc2ccc3ccccc3c2)C[C@H]1c1ccc(NC(=O)c2ccc(-c3ccccc3)cc2)cc1 (relative stereo) [Example A-73, N-[4-[trans-2-amino-2-(2-naphthylmethyl)cyclopropyl]phenyl]-4-phenyl-benzamide hydrochloride]
[1]
  IC50: 0.1 to 1 µM
[2]
  IC50: 10 to 50 µM

## CC[C@@]1(N)C[C@H]1c1ccc(NC(=O)Cc2ccc3ccccc3c2)cc1 (relative stereo) [Example A-74, N-[4-trans-2-amino-2-ethyl-cyclopropyl] phenyl]-2-(2-naphthyl) acetamide hydrochloride]
[1]
  IC50: < 0.1 µM
[2]
  IC50: 10 to 50 µM

## N[C@]1(c2ccccc2)C[C@H]1c1ccc(NC(=O)c2ccccc2)cc1 (relative stereo) [Example A-75, N-[4-[trans-2-amino-2-phenyl-cyclopropyl]phenyl] benzamide hydrochloride]
[1]
  IC50: < 0.1 µM
[2]
  IC50: 10 to 50 µM

## N[C@]1(Cc2ccc3ccccc3c2)C[C@H]1c1ccc(NC(=O)Cc2cccc3ccccc23)cc1 (relative stereo) [Example A-76, N-[4-[trans-2-amino-2-(2-naphthylmethyl)cyclopropyl]phenyl]-2-(1-naphthyl)acetamide hydrochloride]
[1]
  IC50: 0.1 to 1 µM
[2]
  IC50: ≤ 10 µM

## CC[C@@]1(N)C[C@H]1c1cccc(NC(=O)Cc2cccc3ccccc23)c1 (relative stereo) [Example A-77, N-[3-[trans-2-amino-2-ethyl-cyclopropyl]phenyl]-2-(1-naphthyl) acetamide hydrochloride]
[1]
  IC50: 0.1 to 1 µM
[2]
  IC50: 10 to 50 µM

## N[C@]1(Cc2ccc3ccccc3c2)C[C@H]1c1ccc(NC(=O)c2cccc(Cl)c2)cc1 (relative stereo) [Example A-79, N-[4-[trans-2-amino-2-(2-naphthylmethyl)cyclopropyl]phenyl]-3-chloro-benzamide hydrochloride]
[1]
  IC50: < 0.1 µM
[2]
  IC50: 10 to 50 µM

## CC[C@@]1(N)C[C@H]1c1cccc(NC(=O)c2cccc(Cl)c2)c1 (relative stereo) [Example A-80, N-[3-[trans-2-amino-2-ethyl-cyclopropyl]phenyl]-3-chloro-benzamide hydrochloride]
[1]
  IC50: 0.1 to 1 µM
[2]
  IC50: 10 to 50 µM

## CC[C@@]1(N)C[C@H]1c1ccc(NC(=O)c2ccc(N3CCOC3=O)cc2)cc1 (relative stereo) [Example A-83, N-[4-[trans-2-amino-2-ethyl-cyclopropyl]phenyl]-4-(2-oxooxazolidin-3-yl)benzamide hydrochloride]
[1]
  IC50: < 0.1 µM
[2]
  IC50: ≤ 10 µM

## N[C@]1(c2ccccc2)C[C@H]1c1ccc(NC(=O)c2cccc(NC(=O)OCc3ccccc3)c2)cc1 (relative stereo) [Example A-84, benzyl N-[3-[(4-[trans-2-amino-2-phenyl-cyclopropyl]phenyl)carbamoyl]phenyl]carbamate 2,2,2-trifluoroacetic acid]
[1]
  IC50: < 0.1 µM
[2]
  IC50: 10 to 50 µM

## N[C@]1(c2ccccc2)C[C@H]1c1ccc(NC(=O)c2ccc3ccccc3c2)cc1 (relative stereo) [Example A-85, N-[4-[trans-2-amino-2-phenyl-cyclopropyl]phenyl] naphthalene-2-carboxamide hydrochloride]
[1]
  IC50: < 0.1 µM
[2]
  IC50: ≤ 10 µM

## CC[C@@]1(N)C[C@H]1c1ccc(NC(=O)c2ccccc2)c(F)c1 (relative stereo) [Example A-86, N-[4-[trans-2-amino-2-ethyl-cyclopropyl]-2-fluoro-phenyl]benzamide hydrochloride]
[1]
  IC50: < 0.1 µM
[2]
  IC50: 50 to 100 µM

## CC[C@@]1(N)C[C@H]1c1ccc(NC(=O)c2ccc(-c3ccccc3)cc2)c(F)c1 (relative stereo) [Example A-87, N-[4-[trans-2-amino-2-ethyl-cyclopropyl]-2-fluoro-phenyl]-4-phenyl-benzamide hydrochloride]
[1]
  IC50: < 0.1 µM
[2]
  IC50: 10 to 50 µM

## CC[C@@]1(N)C[C@H]1c1ccc(NC(=O)c2ccc(N3CCOCC3)cc2)cc1 (relative stereo) [Example A-88, N-[4-[trans-2-amino-2-ethyl-cyclopropyl]phenyl]-4-morpholino-benzamide 2,2,2-trifluoroacetic acid]
[1]
  IC50: < 0.1 µM
[2]
  IC50: 10 to 50 µM

## N[C@]1(c2ccccc2)C[C@H]1c1ccc(NC(=O)c2ccc(-c3ccccc3)cc2)cc1 (relative stereo) [Example A-89, N-[4-[trans-2-amino-2-phenyl-cyclopropyl]phenyl]-4-phenyl-benzamide 2,2,2-trifluoroacetic acid]
[1]
  IC50: < 0.1 µM
[2]
  IC50: ≤ 10 µM

## N[C@]1(c2ccccc2)C[C@H]1c1ccc(NC(=O)c2cccc3ccccc23)cc1 (relative stereo) [Example A-90, N-[4-[trans-2-amino-2-phenyl-cyclopropyl]phenyl] naphthalene-1-carboxamide hydrochloride]
[1]
  IC50: < 0.1 µM
[2]
  IC50: ≤ 10 µM

## CC[C@@]1(N)C[C@H]1c1cccc(NC(=O)c2ccc(-c3ccccc3)cc2)c1 (relative stereo) [Example A-91, N-[3-[trans-2-amino-2-ethyl-cyclopropyl]phenyl]-4-phenyl-benzamide hydrochloride]
[1]
  IC50: 0.1 to 1 µM
[2]
  IC50: 10 to 50 µM

## CC[C@@]1(N)C[C@H]1c1cccc(NC(=O)c2ccc3ccccc3c2)c1 (relative stereo) [Example A-92, N-[3-[trans-2-amino-2-ethyl-cyclopropyl]phenyl] naphthalene-2-carboxamide hydrochloride]
[1]
  IC50: 0.1 to 1 µM
[2]
  IC50: 10 to 50 µM

## CC[C@@]1(N)C[C@H]1c1ccc(NC(=O)c2ccc(NC(=O)OCc3ccccc3)cc2)c(F)c1 (relative stereo) [Example A-95, benzyl N-[4-[[4-[trans-2-amino-2-ethyl-cyclopropyl]-2-fluoro-phenyl]carbamoyl]phenyl]carbamate hydrochloride]
[1]
  IC50: 0.1 to 1 µM
[2]
  IC50: ≤ 10 µM

## CC[C@@]1(N)C[C@H]1c1ccc(NC(=O)c2ccc(N3CCN(C)CC3)cc2)cc1 (relative stereo) [Example A-97, N-[4-[trans-2-amino-2-ethyl-cyclopropyl]phenyl]-4-(4-methylpiperazin-1-yl)benzamide 2,2,2-trifluoroacetic acid]
[1]
  IC50: < 0.1 µM
[2]
  IC50: 10 to 50 µM

## CC[C@@]1(N)C[C@H]1c1ccc(NC(=O)c2ccc(N3CCOCC3)c(NC(=O)OCc3ccccc3)c2)cc1 (relative stereo) [Example A-99, benzyl N-[5-[[4-[trans-2-amino-2-ethyl-cyclopropyl]phenyl]carbamoyl]-2-morpholino-phenyl]carbamate 2,2,2-trifluoroacetic acid]
[1]
  IC50: < 0.1 µM
[2]
  IC50: ≤ 10 µM

## CC[C@@]1(N)C[C@H]1c1ccc(NC(=O)c2ccncc2)cc1 (relative stereo) [Example A-101, N-[4-(trans-2-amino-2-ethyl-cyclopropyl)phenyl] pyridine-4-carboxamide dihydrochloride]
[1]
  IC50: < 0.1 µM
[2]
  IC50: 10 to 50 µM

From patent publication US9944589B2, “Cycloproplyamine derivatives useful as inhibitors of histone demethylases KDM1A” (Istituto Europeo de Oncologia S.r.L., priority 2012, dated 2018)
